Earlier results, collected in publication PMC2151269, “Broad phase II and pharmacokinetic study of methoxy-morpholino doxorubicin (FCE 23762-MMRDX) in non-small-cell lung cancer, renal cancer and other solid tumour patients” (British Journal of Cancer, 1998).

Parameters: method as in Tidefelt et al, 1989
Settings: 0-48 h after simultaneous infusion of 20 mg of epirubicin and 20 mg of doxorubicin; ref Tidefelt et al, 1989; cited from earlier work

| Structure (SMILES) | Peak cellular concentrations relative to plasma concentrations |
| --- | --- |
| COc1cccc2c1C(=O)c1c(O)c3c(c(O)c1C2=O)C[C@@](O)(C(=O)CO)C[C@@H]3O[C@H]1C[C@H](N)[C@H](O)[C@H](C)O1 [doxorubicin] | around 200 times |
| COc1cccc2c1C(=O)c1c(O)c3c(c(O)c1C2=O)C[C@@](O)(C(=O)CO)C[C@@H]3O[C@H]1C[C@H](N)[C@@H](O)[C@H](C)O1 [epirubicin] | around 200 times |
